From patent US20200291100A1, “TREATMENT OF AGE-RELATED AND MITOCHONDRIAL DISEASES BY INHIBITION OF HIF-1 ALPHA FUNCTION” (President and Fellows of Harvard College, priority 2012, published 2020)

Tests used:
SIRT1-tg mice = test: DMOG treatment of SIRT1-tg mice, gastrocnemius readouts; format: in vivo, mouse; settings: DMOG 300 mg/kg IP per day, 5 days
Experimental: Whole body SIRT1 overexpressor (SIRT1-tg) mice of 6 months of age were given interperitoneal (IP) injections of 300 mg DMOG/kg body weight per day or the equivalent volume of PBS for 5 consecutive days.
(§1) ATP content was measured with a commercial kit according to the manufacturer's instructions (Roche).
(§2) RNA from skeletal muscle tissue and C2C12 cells were extracted with RNeasy mini kit (Qiagen) according to the instructions and quantified using the NanoDrop 1000 spectrophotometer (Thermo Scientific). cDNA was synthesized with the iSCRIP cDNA synthesis kit (BioRad) using 600 ng of RNA. Quantitative RT-PCR reactions were performed using 1 μM of primers and LightCycler® 480 SYBR Green Master (Roche) on an LightCycler® 480 detection system (Roche). Calculations were performed by a comparative method (2-ΔCT) using 18S as an internal control. For mtDNA analysis, total DNA was extracted with DNeasy blood and tissue kit (Qiagen). mtDNA was amplified using primers specific for the mitochondrial cytochrome c oxidase subunit 2 (COX2) gene and normalized to genomic DNA by amplification of the ribosomal protein s18 (rps18) nuclear gene. Primers were designed using the IDT software (IDT) and the primer sequences can be found in Table 1.
Protein extracts from tissue or C2C12 cells were obtained by lysis in ice-cold lysis buffer (150 mM NaCl, 10 mM Tris HCl (pH 7.4), 1 mM EDTA, 1 mM EGTA, 1% Triton X-100, 0.5% NP-40) supplemented with a cocktail of protease and phosphatase inhibitors (Roche). Protein content was determined by the Bradford protein assay (Biorad), and 50 μg proteins were run on SDS-PAGE under reducing conditions. The separated proteins were then electrophoretically transferred to a polyvinylidene difluoride membrane (Perkin-Elmer). […] The immunostaining was detected using horseradish peroxidase-conjugated anti-rabbit or anti-mouse immunoglobulin for 1 h at room temperature.

C2C12 myoblasts = test: DMOG treatment of C2C12 myoblasts, mtDNA content and ETC gene expression; format: cell-based, mouse; settings: 16 h
Experimental: To test if the normal hypoxic response reproduces the effect of a SIRT1 deletion by causing genome asynchrony, C2C12 myoblasts were grown under hypoxic conditions (1% oxygen) or treated with dimethyloxaloylglycine (DMOG), a HIFα prolyl hydroxylase inhibitor that stabilizes HIF.
C2C12 cell line (ATCC) was cultured in low glucose Dulbecco's modified eagle medium (DMEM) (Invitrogen) supplemented with 10% FBS (Invitrogen) and a mix of antibiotic and antimycotic (Invitrogen). To inhibit SIRT1, cells were treated the vehicle (0.001% DMSO) or 10 μM EX-527 (Tocris) for 12 h. C2C12 myoblasts were infected with an empty or SIRT1 adenovirus as described before (Gerhart-Hines et al., 2007) and the media was replaced with fresh DMEM for additional 48 h, after that the cells were treated as described before. To test the effects of hypoxia and HIFα stabilization in genome asyncrony, C2C12 myoblasts were exposed to 1% oxygen for 16 h or treated with the vehicle (0.001% DMSO) or DMOG (Cayman) for the same period of time.
as §2

SIRT1 KO mice = test: NMN treatment of inducible SIRT1 KO mice; format: in vivo, mouse; settings: skeletal muscle of SIRT1 KO versus WT mice
Experimental: Whole body adult-inducible SIRT1 knockout mice were treated with tamoxifen for 5 weeks and the efficiency of deletion in DNA from tail samples was determined by PCR. Animals were then maintained on regular diet for 4 months. For the fasting experiments, mice were fasted for 16 hrs prior to sacrifice. All animal care followed the guidelines and was approved by the Institutional Animal Care and Use Committees (IACUCs) at Harvard
The inducible SIRT1 KO mouse allowed the testing of the involvement of SIRT1 in the effects of NMN in vivo.
C57BL/6J mice of 6, 22, or 30 months of age were obtained from the National Institutes of Aging mouse aging colony. Additionally 22 months old caloric restricted mice were also obtained from the National Institutes of Aging mouse aging colony. EGLN1 KO, SIRT1 KO and SIRT1 OE mice were generated as previously described (Minamishima et al., 2008; Price et al., 2012). […]
RNA from skeletal muscle tissue and C2C12 cells were extracted with RNeasy mini kit (Qiagen) according to the instructions and quantified using the NanoDrop 1000 spectrophotometer (Thermo Scientific). cDNA was synthesized with the iSCRIP cDNA synthesis kit (BioRad) using 600 ng of RNA. Quantitative RT-PCR reactions were performed using 1 μM of primers and LightCycler® 480 SYBR Green Master (Roche) on an LightCycler® 480 detection system (Roche). […]

Egln1 KO mice = test: NMN treatment of Egln1 KO mice; format: in vivo, mouse; settings: skeletal muscle of Egln1 KO mice compared to WT controls; NMN 500 mg/kg IP, 7 days
Experimental: Whole body adult-inducible Egln1 knockout mice (Minamishima et al, 2007) were treated with IP injection of tamoxifen for 3 days after which they were allowed to rest. The mice were given interperitoneal (IP) injections of 500 mg NMN/kg body weight per day or the equivalent volume of PBS for 7 consecutive days at 5:00 pm and 7:00 am on day 8 and sacrificed 4 hr after last injection. All animal studies followed the guidelines of and were approved by the Harvard Institutional Animal Care and Use Committee.
as §1
RNA from skeletal muscle tissue and C2C12 cells were extracted with RNeasy mini kit (Qiagen) according to the instructions and quantified using the NanoDrop 1000 spectrophotometer (Thermo Scientific). cDNA was synthesized with the iSCRIP cDNA synthesis kit (BioRad) using 600 ng of RNA. Quantitative RT-PCR reactions were performed using 1 μM of primers and LightCycler® 480 SYBR Green Master (Roche) on an LightCycler® 480 detection system (Roche). Calculations were performed by a comparative method (2-ΔCT) using 18S as an internal control. […]

COC(=O)CNC(=O)C(=O)OC [DMOG, dimethyloxaloylglycine]
HIF-1α protein (immunoblot) (SIRT1-tg mice): increase HIF-1α | effect on the increase in ATP levels observed in SIRT1-tg mice (SIRT1-tg mice): abolished the increase | effect on the increase in expression of mitochondrial-encoded genes observed in SIRT1-tg mice (SIRT1-tg mice): abolished the increase | expression of mitochondrially-encoded ETC genes (C2C12 myoblasts): specific decline | expression of nuclear-encoded ETC components (C2C12 myoblasts): but not the nuclear-encoded components | mtDNA content (C2C12 myoblasts): specific decline

NC(=O)c1ccc[n+]([C@@H]2O[C@H](COP(=O)([O-])O)[C@@H](O)[C@H]2O)c1 [NMN, nicotinamide mononucleotide]
ability of NMN to induce mitochondrially-encoded genes (SIRT1 KO mice; qPCR): lost in animals lacking SIRT1 | ability of NMN to improve mitochondrial function (SIRT1 KO mice; mitochondrial membrane potential (FIG. 10I)): lost in animals lacking SIRT1 | ATP levels (Egln1 KO mice): did not restore | mitochondrial-encoded genes (Egln1 KO mice): did not restore
